The results in this text go back to the NIST ThermoML archive (doi:10.1016/j.fluid.2007.01.001).

The conditions of data set [1]: 101 kPa, Liquid; for viscosity: Capillary tube (Ostwald / Ubbelohde) method; for speed of sound: Frequency=2 MHz, Linear variable-path acoustic interferometer; for mass density: Pycnometric method.
Data set [2] is described as follows: xn = mol fraction of the nth substance listed. To be noted: 101 kPa, Liquid, x1 = 1; for viscosity: Capillary tube (Ostwald / Ubbelohde) method; for speed of sound: Frequency=2 MHz, Linear variable-path acoustic interferometer; for mass density: Pycnometric method.

Numbers after ± are expanded uncertainties.

One may read the viscosity as the resistance of a fluid to flow. For orientation: speed of sound means the propagation velocity of pressure waves in the medium. As usually defined, the mass density is the mass of a sample divided by its volume.

With `CCCCCC(C)O` (configuration not stated) [2-heptanol], in data set [1] (298.15 K), the viscosity turned out to be 5.088 ± 0.41 mPa·s, the speed of sound stood at 1314 ± 3 m/s and the mass density is on record as 813.74 ± 0.69 kg/m3. In addition, in data set [1] (308.15 K), the viscosity is given as 3.683 ± 0.3 mPa·s, the speed of sound was 1274 ± 3 m/s and the mass density stood at 804.88 ± 0.7 kg/m3.

`CCCCC(C)O` (configuration not stated) [2-hexanol]: in data set [1] (298.15 K), the viscosity is 4.105 ± 0.33 mPa·s, the speed of sound was determined as 1290 ± 3 m/s and the mass density is given as 810.84 ± 0.7 kg/m3. In data set [1] (308.15 K), the viscosity is listed as 2.92 ± 0.23 mPa·s, the speed of sound turned out to be 1255 ± 3 m/s and the mass density came to 801.75 ± 0.71 kg/m3.

As for `CCCCCCC(C)O` (configuration not stated) [2-octanol], in data set [1] (298.15 K), the viscosity is 6.429 ± 0.52 mPa·s, the speed of sound is 1328 ± 3 m/s and the mass density is 817.08 ± 0.58 kg/m3. In addition, in data set [1] (308.15 K), the viscosity stood at 4.365 ± 0.35 mPa·s, the speed of sound turned out to be 1292 ± 3 m/s and the mass density is 809.89 ± 0.6 kg/m3.

For the compound `Cc1ccccc1` [toluene], in data set [1] (298.15 K), the viscosity was determined as 0.554 ± 0.044 mPa·s, the speed of sound is 1306 ± 3 m/s and the mass density worked out at 862.18 ± 0.73 kg/m3. Moreover, in data set [1] (308.15 K), the viscosity came to 0.496 ± 0.04 mPa·s, the speed of sound was 1270 ± 3 m/s and the mass density is listed as 852.79 ± 0.74 kg/m3.

As to `Cc1ccccc1` [toluene] + CCCCC(C)O, in data set [2] (298.15 K), the viscosity was found to be 0.554 ± 0.044 mPa·s, the speed of sound is on record as 1306 ± 3 m/s and the mass density came to 862.18 ± 0.73 kg/m3. For the same compound, in data set [2] (308.15 K), the viscosity is recorded as 0.496 ± 0.04 mPa·s, the speed of sound is listed as 1270 ± 3 m/s and the mass density is 852.79 ± 0.74 kg/m3.

On to `Cc1ccccc1` [toluene] + CCCCCC(C)O, for which, in data set [2] (298.15 K), the viscosity was 0.554 ± 0.044 mPa·s, the speed of sound is listed as 1306 ± 3 m/s and the mass density was 862.18 ± 0.73 kg/m3. Besides, in data set [2] (308.15 K), the viscosity was 0.496 ± 0.04 mPa·s, the speed of sound stood at 1270 ± 3 m/s and the mass density stood at 852.79 ± 0.74 kg/m3.

Take `Cc1ccccc1` [toluene] + CCCCCCC(C)O: in data set [2] (298.15 K), the viscosity came to 0.554 ± 0.044 mPa·s, the speed of sound was determined as 1306 ± 3 m/s and the mass density amounted to 862.18 ± 0.73 kg/m3. In addition, in data set [2] (308.15 K), the viscosity worked out at 0.496 ± 0.04 mPa·s, the speed of sound was determined as 1270 ± 3 m/s and the mass density came out at 852.79 ± 0.74 kg/m3.
